System: Chlorella sp. ATCC 7516
Assay: Algal efficacy testing of dry paint films (modified ASTM 5589, 6-well plates)
Assay type: cell-based
Conditions: 3 weeks; for Total conc, ppm (minimum total biocide concentration in paint reaching pass level): pass level >=75% algal growth inhibition, acrylic/silicone paint film on filter paper
Description: These paints were then diluted with an antimicrobial free acrylic/silicone based paint and mixed to prepare targeted concentrations of antimicrobial compounds for the testing. The total biocides concentrations tested were 125, 250, 500, 1000, 2000 and 5000 ppm. After biocides addition or dilution, the paints were mixed 90 seconds with the horse power shaker (AXEL 75M3372/Agitateur SO-10MI) until uniformity was achieved. Paints containing different antimicrobial compounds at the same levels were mixed together in order to obtain the desired ratio of antimicrobial compounds. After one day, the paints were applied to Schleicher & Schuell filter paper at 280 μm wft and dried for 3 days at room temperature avoiding direct exposure to sunlight. Square discs (1.6 cm×1.6 cm) were cut out from each panel and were used as the substrate for algal efficacy tests. This sample size allowed for an agar border when the sample disc was placed into the well of the test plate.
Algal efficacy was tested according to modified ASTM 5589 which is a standard accelerated test method for determining resistance of various coatings (including paints) to algal defacement. To accommodate for high-throughput screening, this method was scaled down from petri dishes to 6-well plates. Bold Modified Basal Freshwater Nutrient Solution was used as growth medium. A single coated filter paper coupon was placed with a pair of sterile forceps at the center of the agar plug (on top) with the painted surface facing upwards.
Each well that contains a tested coupon was inoculated with 1750 μl of algal suspensions (1×10^6 cfu/ml) making sure that the whole surface (paint film as well as the agar surrounding it) was evenly covered. The plates were incubated at room temp (21° C.-25° C.) with cyclic exposure to light and dark phases, for a period of three weeks.
At the end of the three week incubation period, the samples were scored for percent inhibition regarding color intensity compared to the blank sample.
The Synergy Index calculation was performed as follows.
The SI is calculated based on F. C.
SI value of <1 in the formula indicates a synergism of the blended biocides exists.
The minimal targeted inhibition was set at 75%, meaning a coupon with at least 75% algal growth inhibition was considered as a pass.

Row | SMILES | Total conc, ppm (minimum total biocide concentration in paint reaching pass level) [ppm] | inhibition at 1000 ppm (504 h, at total conc 1000 ppm in paint) [%] | % inhibition (at total conc 500 ppm in paint) [%]
1 | Cc1ccc(NC(=O)N(C)C)cc1Cl [Chlorotoluron, N′-(3-chloro-4-methylphenyl)-N,N-dimethylurea] | 1000 | 100 | 
2 | [O-][n+]1ccccc1[S][Zn][S]c1cccc[n+]1[O-] [ZnPT, bis(2-pyridylthio)zinc 1,1′-dioxide] | 500 |  | 95

— patent US9332761B2, “Synergistic combination of a chlorotoluron compound and zinc pyrithione for dry film protection” (Rohm and Haas Company, priority 2013, dated 2016)
